In test [1] the target is T1, human BRD4 bromodomain II (Homo sapiens, UniProt O60885).
T1 construct: human BRD4 bromodomain II [based on Genbank NM_058243, residues 349-460]; host or cells: E. coli
Briefly: Bromodomain binding assay (AlphaScreen), BRD4 BDII. The method, boiled down:
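Tagged BRD4 BDI or BDII constructs, expressed in E. coli, competed against a K5/K8/K12/K16-acetylated biotin-H4 peptide. Proximity signal between bead pairs after room-temperature incubations gave concentration-response curves, from which IC50 was derived.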
(In general: In Alpha technology, singlet oxygen from a donor bead excites a nearby acceptor bead.)

Test [2] concerns human SKM-1 acute myeloid leukemia cells. Briefly: SKM-1 antiproliferation cell-based assay (ATPlite). As to conditions: Homo sapiens. The method, boiled down:
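Log-phase cells in RPMI 1640/15% FBS were seeded at 34722 cells/mL and exposed for 4 days to nine-concentration DMSO serial dilutions in triplicate. Viability was read as ATP luminescence (ATPlite 1step), and IC50 values came from variable-slope non-linear regression.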
In general terms: Cellular ATP, detected with luciferase, serves as a proxy for viable cell number.

The mark [3] stands for this setting: AlphaScreen assay, Table C2, read-out: BRD4 BDII IC50.
[4] abbreviates: SKM-1, 96 h, SKM-1 antiproliferation assay, 4 days, Table C2.
[5] abbreviates: BRD4 BDII AlphaScreen assay, read-out: BRD4 BD2 IC50.
Where [6] appears, read: SKM-1, SKM-1 antiproliferation assay.

What is called IC50 is the midpoint of a concentration-inhibition curve. The term GI50 denotes the concentration that inhibits growth by half. High values mean lower sensitivity of the cells, low ones greater sensitivity of the cells.

Where two headings read alike, the source gives them in different places.

For the molecule `Cn1ccn(-c2ccc(-c3cc(F)cc(-c4ccnc(N5CCCC5)c4)c3O)cc2Cl)c1=O` [Example 613, 1-(3-chloro-5′-fluoro-2′-hydroxy-3′-(2-(pyrrolidin-1-yl)pyridin-4-yl)-[1,1′-biphenyl]-4-yl)-3-methyl-1H-imidazol-2(3H)-one], the IC50 in test [1] (setting [3]) was in the range of 1 to 10 nM. In addition, the 50% growth inhibitory concentration (GI50) in test [2] (setting [4]) was 30 to 300 nM.
`C[C@@H]1CN(c2cncc(-c3cccc(-c4ccc(N5CCCC5=O)c(F)c4)c3O)c2)CCN1` [Example 264, (R)-1-(3-fluoro-2′-hydroxy-3′-(5-(3-methylpiperazin-1-yl)pyridin-3-yl)-[1,1′-biphenyl]-4-yl)pyrrolidin-2-one]: the IC50 in test [1] (setting [3]) fell in the range of 1 to 10 nM. The concentration for 50% growth inhibition (GI50) in test [2] (setting [4]) was in the range of 30 to 300 nM.
For `CC(=O)Nc1ncc(-c2cc(F)cc(-c3cccc(N4CCN(C(C)(C)C)CC4)c3)c2O)cn1` [Example 907, N-(5-(3′-(4-(tert-butyl)piperazin-1-yl)-5-fluoro-2-hydroxy-[1,1′-biphenyl]-3-yl)pyrimidin-2-yl)acetamide], the IC50 in test [1] (setting [5]) is > 100 nM. The GI50 in test [2] (setting [6]) is > 3000 nM.
As for `CC(=O)Nc1ccc(-c2cc(F)cc(-c3ccnc(N4CCNCC4)c3)c2O)cc1F` [Example 224, N-(3,5′-difluoro-2′-hydroxy-3′-(2-(piperazin-1-yl)pyridin-4-yl)-[1,1′-biphenyl]-4-yl)acetamide], the IC50 in test [1] (setting [3]) fell in the range of 1 to 10 nM. Also, in test [2] (setting [4]), the GI50 was in the range of 30 to 300 nM.
Consider `Cn1ccn(-c2ccc(-c3cc(F)cc(-c4ccc(Cl)c(N5CC[C@@](C)(O)C5)c4)c3O)cc2Cl)c1=O` [Example 842, (R)-1-(3,4″-dichloro-5′-fluoro-2′-hydroxy-3″-(3-hydroxy-3-methylpyrrolidin-1-yl)-[1,1′:3′,1″-terphenyl]-4-yl)-3-methyl-1H-imidazol-2(3H)-one], for which the IC50 in test [1] (setting [3]) fell in the range of 1 to 10 nM. The GI50 in test [2] (setting [4]) lay in the range of 30 to 300 nM.
On to `COc1ncc(-c2nc(C)cc(-c3ccc(-n4ccn(C)c4=O)c(Cl)c3)c2O)cc1N1CC[C@@]2(CCN2C(C)C)C1` [Example 1023, (S)-1-(2-chloro-4-(3-hydroxy-5′-(1-isopropyl-1,6-diazaspiro[3.4]octan-6-yl)-6'-methoxy-6-methyl-[2,3′-bipyridin]-4-yl)phenyl)-3-methyl-1,3-dihydro-2H-imidazol-2-one], for which the IC50 in test [1] (setting [5]) lay in the range of 0.01 to 1 nM. Moreover, the GI50 in test [2] (setting [6]) was 0.3 to 30 nM.
For the molecule `C[C@@H]1CN(c2cc(-c3cc(F)cc(-c4ccc(-n5ccn(C)c5=O)c(Cl)c4)c3O)cc3[nH]c(=O)[nH]c23)CCN1` [Example 603, (R)-6-(3′-chloro-5-fluoro-2-hydroxy-4′-(3-methyl-2-oxo-2,3-dihydro-1H-imidazol-1-yl)-[1,1′-biphenyl]-3-yl)-4-(3-methylpiperazin-1-yl)-1H-benzo[d]imidazol-2(3H)-one], the IC50 in test [1] (setting [3]) fell in the range of 0.01 to 1 nM. The GI50 in test [2] (setting [4]) was 30 to 300 nM.
For `Cn1ccn(-c2ccc(-c3cc(F)cc(-c4ccnc(N5CC6CCC(C5)C6(C)N)c4)c3O)cc2Cl)c1=O` (centres unmarked) [Example 757, 1-(3′-(2-(8-amino-8-methyl-3-azabicyclo[3.2.1]octan-3-yl)pyridin-4-yl)-3-chloro-5′-fluoro-2′-hydroxy-[1,1′-biphenyl]-4-yl)-3-methyl-1H-imidazol-2(3H)-one], the 50% inhibitory concentration (IC50) in test [1] (setting [3]) lay within 0.01 to 1 nM. Besides, the concentration for 50% growth inhibition (GI50) in test [2] (setting [4]) is 30 to 300 nM.
Taken in the same sequence, the figures for `CN[C@H]1CCCN(c2cc(-c3cc(F)cc(-c4ccc(-n5ccn(C)c5=O)c(Cl)c4)c3O)ccn2)C1` [Example 440, (S)-1-(3-chloro-5′-fluoro-2′-hydroxy-3′-(2-(3-(methylamino)piperidin-1-yl)pyridin-4-yl)-[1,1′-biphenyl]-4-yl)-3-methyl-1H-imidazol-2(3H)-one] were 0.01 to 1 nM and 30 to 300 nM.
With `Cc1cc(-c2ccc(-n3cc[nH]c3=O)c(Cl)c2)c(O)c(-c2cccc(N3CCN(C(C)(C)C)CC3)c2)n1` [Example 1035, 1-(4-(2-(3-(4-(tert-butyl)piperazin-1-yl)phenyl)-3-hydroxy-6-methylpyridin-4-yl)-2-chlorophenyl)-1,3-dihydro-2H-imidazol-2-one], in test [1] (setting [5]), the 50% inhibitory concentration (IC50) was in the range of 10 to 100 nM. This molecule also showed a GI50 in test [2] (setting [6]) of 30 to 300 nM.
For the molecule `Cn1ccn(-c2ccc(-c3cc(F)cc(-c4cc(F)cc(N5CCN(C(C)(C)C)CC5)c4)c3O)cc2Cl)c1=O` [Example 754, 1-(3″-(4-(tert-butyl)piperazin-1-yl)-3-chloro-5′,5″-difluoro-2′-hydroxy-[1,1′:3′,1″-terphenyl]-4-yl)-3-methyl-1H-imidazol-2(3H)-one], the half-maximal inhibitory concentration (IC50) in test [1] (setting [3]) lay in the range of 0.01 to 1 nM. This molecule had a GI50 in test [2] (setting [4]) of 0.3 to 30 nM.
On to `CC(C)C(=O)Nc1cc(-c2cc(F)cc(-c3ccc(-n4ccn(C)c4=O)c(Cl)c3)c2O)cc(N2CC[C@H](N)C2)n1` [Example 524, (S)-N-(6-(3-aminopyrrolidin-1-yl)-4-(3′-chloro-5-fluoro-2-hydroxy-4′-(3-methyl-2-oxo-2,3-dihydro-1H-imidazol-1-yl)-[1,1′-biphenyl]-3-yl)pyridin-2-yl)isobutyramide], for which, in test [1] (setting [3]), the concentration for half-maximal inhibition (IC50) lay within 1 to 10 nM. The molecule further yielded a GI50 in test [2] (setting [4]) of 0.3 to 30 nM.
`Cn1ccn(-c2ccc(-c3cc(F)cc(-c4cc(N5CCN(C(C)(C)C)CC5)no4)c3O)cc2Cl)c1=O` [Example 905, 1-(3′-(3-(4-(tert-butyl)piperazin-1-yl)isoxazol-5-yl)-3-chloro-5′-fluoro-2′-hydroxy-[1,1′-biphenyl]-4-yl)-3-methyl-1H-imidazol-2(3H)-one]: the IC50 in test [1] (setting [5]) fell in the range of 1 to 10 nM. The same molecule yielded a GI50 in test [2] (setting [6]) of 30 to 300 nM.
As to `Cc1ncc(-c2cc(F)cc(-c3ccc(-n4ccn(C)c4=O)c(Cl)c3)c2O)cc1N1CC(F)(F)[C@@](C)(O)C1` [Example 897], the IC50 in test [1] (setting [5]) was in the range of 1 to 10 nM. Besides, in test [2] (setting [6]), the GI50 is 30 to 300 nM.
As for `Cn1ccn(-c2ccc(-c3cc(F)cc(-c4cc(-c5ccn[nH]5)nc(N5CCNCC5)c4)c3O)cc2Cl)c1=O` [Example 553, 1-(3-chloro-5′-fluoro-2′-hydroxy-3′-(2-(piperazin-1-yl)-6-(1H-pyrazol-5-yl)pyridin-4-yl)-[1,1′-biphenyl]-4-yl)-3-methyl-1H-imidazol-2(3H)-one], the IC50 in test [1] (setting [3]) was in the range of 1 to 10 nM. Besides, the GI50 in test [2] (setting [4]) was in the range of 0.3 to 30 nM.
In the case of `CN1CCN(c2ccc(-c3cc(F)cc(-c4ccnc(N5CCC(N)CC5)c4)c3O)cc2Cl)C1=O` [Example 350, 1-(3′-(2-(4-aminopiperidin-1-yl)pyridin-4-yl)-3-chloro-5′-fluoro-2′-hydroxy-[1,1′-biphenyl]-4-yl)-3-methylimidazolidin-2-one], the IC50 in test [1] (setting [3]) was in the range of 10 to 100 nM. Besides, the GI50 in test [2] (setting [4]) was 30 to 300 nM.
On the same counts, the results for `O=C1CCCN1c1ccc(-c2cccc(-c3ccnc(N4CCNCC4)c3)c2O)cc1Cl` [Example 209, 1-(3-chloro-2′-hydroxy-3′-(2-(piperazin-1-yl)pyridin-4-yl)-[1,1′-biphenyl]-4-yl)pyrrolidin-2-one] are 1 to 10 nM and 30 to 300 nM.
`Cn1ccn(-c2ccc(-c3cc(F)cc(-c4ccnc(N5CCN(C6CC6)CC5)c4)c3O)cc2Cl)c1=O` [Example 531, 1-(3-chloro-3′-(2-(4-cyclopropylpiperazin-1-yl)pyridin-4-yl)-5′-fluoro-2′-hydroxy-[1,1′-biphenyl]-4-yl)-3-methyl-1H-imidazol-2(3H)-one]: in test [1] (setting [3]), the IC50 lay in the range of 1 to 10 nM. The molecule also returned a concentration for 50% growth inhibition (GI50) in test [2] (setting [4]) of 30 to 300 nM.
As to `CC(=O)Nc1ccc(-c2cccc(-c3ccnc(N4CC[C@H](O)C4)c3)c2O)cc1F` [Example 239, (S)-N-(3-fluoro-2′-hydroxy-3′-(2-(3-hydroxypyrrolidin-1-yl)pyridin-4-yl)-[1,1′-biphenyl]-4-yl)acetamide], in test [1] (setting [3]), the IC50 was 1 to 10 nM. Besides, the GI50 in test [2] (setting [4]) was 300 to 3000 nM.
As to `Cc1ccc(-c2cc(F)cc(-c3ccc(-n4ccn(C)c4=O)c(Cl)c3)c2O)cc1N1CC[C@@](C)(O)C1` [Example 808, (R)-1-(3-chloro-5′-fluoro-2′-hydroxy-3″-(3-hydroxy-3-methylpyrrolidin-1-yl)-4″-methyl-[1,1′:3′,1″-terphenyl]-4-yl)-3-methyl-1H-imidazol-2(3H)-one], the half-inhibitory concentration (IC50) in test [1] (setting [3]) was in the range of 1 to 10 nM. In test [2] (setting [4]), this molecule returned a GI50 of 30 to 300 nM.
Regarding `Cn1ccn(-c2ccc(-c3cc(F)cc(-c4ccnc(N5CC6(CC6)[C@](C)(O)C5)c4)c3O)cc2Cl)c1=O` [Example 815], in test [1] (setting [3]), the IC50 was in the range of 0.01 to 1 nM. The same molecule came in with a GI50 in test [2] (setting [4]) of 0.3 to 30 nM.
`COc1ncc(-c2cc(F)cc(-c3ccc(-n4ccn(C)c4=O)c(Cl)c3)c2O)cc1N1CCC2(CCN2C(C)C)C1` (centres unmarked) [Example 879]: the IC50 in test [1] (setting [5]) was in the range of 1 to 10 nM. Further, the GI50 in test [2] (setting [6]) was 0.3 to 30 nM.
As for `Cn1ccn(-c2ccc(-c3cc(F)cc(-c4ccnc(N5CCN(C6CCOCC6)CC5)c4)c3O)cc2Cl)c1=O` [Example 634, 1-(3-chloro-5′-fluoro-2′-hydroxy-3′-(2-(4-(tetrahydro-2H-pyran-4-yl)piperazin-1-yl)pyridin-4-yl)-[1,1′-biphenyl]-4-yl)-3-methyl-1H-imidazol-2(3H)-one], in test [1] (setting [3]), the IC50 fell in the range of 0.01 to 1 nM. In test [2] (setting [4]), this molecule had a concentration for 50% growth inhibition (GI50) of 0.3 to 30 nM.
On the same counts, the results for `CC(=O)Nc1ccc(-c2cc(F)cc(-c3cccc(N4CCNCC4)c3)c2O)cc1F` [Example 180, N-(3,5′-difluoro-2′-hydroxy-3″-(piperazin-1-yl)-[1,1′:3′,1″-terphenyl]-4-yl)acetamide] are 1 to 10 nM and 300 to 3000 nM.
Consider `CNC(=O)c1cc(-c2cccc(-c3ccc(NC(C)=O)c(F)c3)c2O)cc(N2CCNCC2)n1` [Example 349, 4-(4′-acetamido-3′-fluoro-2-hydroxy-[1,1′-biphenyl]-3-yl)-N-methyl-6-(piperazin-1-yl)picolinamide], for which the half-inhibitory concentration (IC50) in test [1] (setting [3]) was 10 to 100 nM. The 50% growth inhibitory concentration (GI50) in test [2] (setting [4]) lay within 300 to 3000 nM.

Values taken from US20250179059A1 (The Regents of the University of California, priority 2021, published 2025).
